According to US20250129091A1, “THIENOPYRROLOTRIAZINE COMPOUNDS, THEIR PREPARATION AND THEIR THERAPEUTIC USE” (Sanofi, priority 2022, published 2025):
Where a name gives a salt, the structure may show the parent alone.

These molecules were tested on NLRP3 inflammasome (assay: IL-1β secretion assay (LPS-primed, nigericin-activated THP-1 cells, MSD readout)). Conditions: Homo sapiens, THP-1, LPS-primed, read-out: IL1b IC50.
Format: cell-based
Procedure: Monocytic THP-1 cells (DSMZ) were maintained in RPMI media (RPMI 1640 Medium (1×) +10% FBS, Eurobio CVFSVFOO—OU). Cells were then plated at 16,000 cells per well in 96-well round bottom cell culture plates (TPP, ref 92097) and maintained with RPMI and 0.1% Bovine Serum Albumin solution. Activation of the NLRP3 inflammasome requires both an NF-kB-dependent priming step and the addition of a NLRP3 activator. The priming step was induced by LPS (10 ng/mL, Sigma, ref:L4391) for 3 h at 37° C., then compound, in a 1:3.10 serial dilution series in DMSO 1:100, and the activator nigericin (Sigma Aldrich, ref: SML1779) 10 μM (final concentration) were added to the cells and co-incubated for 2 h. 50 μL supernatant was removed, and IL-1β levels were monitored using an MSD assay (Electro Chemical Luminescence Immunoassay (ECLI) according to manufacturers' instructions.
IC50 values were calculated from the plot of percentage of inhibition versus the inhibitor concentration by a logistics fit according to: y=A2+(A1−A2)/(1+(x/IC50)^p) where y is the %-inhibition at the inhibitor concentration, x. A1 is the lowest inhibition value, i.e., 0%, and A2 the maximum inhibition value, i.e., 100%. The exponent, p, is the Hill coefficient. The curve fitting was conducted with an internally developed software.

Row | Compound | IC50 [nM]
1 | CC(C)c1nn(CC(=O)Nc2ccnn2C)c(=O)c2cc3ccsc3n12 [Example 53, 2-(12-isopropyl-9-oxo-3-thia-1,10,11-triazatricyclo[6.4.0.02,6]dodeca-2(6),4,7,11-tetraen-10-yl)-N-(2-methylpyrazol-3-yl)acetamide] | 1070
2 | CC(C)c1nn(CC(=O)NCC2CC(=O)N(C(C)(C)C)C2)c(=O)c2cc3ccsc3n12 (centres unmarked) [Example 55, N-[(1-tert-butyl-5-oxo-pyrrolidin-3-yl)methyl]-2-(12-isopropyl-9-oxo-3-thia-1,10,11-triazatricyclo[6.4.0.02,6]dodeca-2(6),4,7,11-tetraen-10-yl)acetamide] | 3230
3 | CC(C)c1nn(CC(=O)NC2CN(C)CC(F)(F)C2)c(=O)c2cc3cc(Cl)sc3n12 (centres unmarked) [Example 34, 2-(2-chloro-8-isopropyl-5-oxothieno[3′,2′:4,5]pyrrolo[1,2-d][1,2,4]triazin-6(5H)-yl)-N-(5,5-difluoro-1-methylpiperidin-3-yl)acetamide 2,2,2-trifluoroacetate] | 6160
4 | CC(C)c1nn(CC(=O)Nc2cccnc2)c(=O)c2cc3ccsc3n12 [Example 56, 2-(12-isopropyl-9-oxo-3-thia-1,10,11-triazatricyclo[6.4.0.02,6]dodeca-2(6),4,7,11-tetraen-10-yl)-N-(3-pyridyl)acetamide] | 1470
5 | CC(C)(O)c1nn(CC(=O)N[C@@H]2CCCN(C3CC3)C2)c(=O)c2cc3ccsc3n12 [Example 52, (R)—N-(1-cyclopropylpiperidin-3-yl)-2-(8-(2-hydroxypropan-2-yl)-5-oxothieno[3′,2′:4,5]pyrrolo[1,2-d][1,2,4]triazin-6(5H)-yl)acetamide] | 82
6 | CC(C)c1nn(C(C)C(=O)N[C@@H]2CCCN(C3CC3)C2)c(=O)c2cc3ccsc3n12 (stereo partly drawn) [Example 26, N—((R)-1-cyclopropylpiperidin-3-yl)-2-(8-isopropyl-5-oxothieno[3′,2′:4,5]pyrrolo[1,2-d][1,2,4]triazin-6(5H)-yl)propanamide formate] | 1990
7 | COCc1nn(CC(=O)N[C@@H]2CCCN(C3CC3)C2)c(=O)c2cc3ccsc3n12 [Example 33, (R)—N-(1-cyclopropylpiperidin-3-yl)-2-(8-(methoxymethyl)-5-oxothieno[3′,2′:4,5]pyrrolo[1,2-d][1,2,4]triazin-6(5H)-yl)acetamide 2,2,2-trifluoroacetate] | 2750
8 | CC(C)c1nn(CC(=O)Nc2ccccn2)c(=O)c2cc3ccsc3n12 [Example 58, 2-(12-isopropyl-9-oxo-3-thia-1,10,11-triazatricyclo[6.4.0.02,6]dodeca-2(6),4,7,11-tetraen-10-yl)-N-(2-pyridyl)acetamide] | 657
9 | COc1ccc(NC(=O)Cn2nc(C(C)C)n3c(cc4ccsc43)c2=O)cn1 [Example 16, 2-(8-isopropyl-5-oxothieno[3′,2′:4,5]pyrrolo[1,2-d][1,2,4]triazin-6(5H)-yl)-N-(6-methoxypyridin-3-yl)acetamide] | 1520
10 | CC(C)c1nn(CC(=O)NC2CCC(=O)N(C)C2)c(=O)c2cc3ccsc3n12 (centres unmarked) [Example 47, 2-(8-isopropyl-5-oxothieno[3′,2′:4,5]pyrrolo[1,2-d][1,2,4]triazin-6(5H)-yl)-N-(1-methyl-6-oxopiperidin-3-yl)acetamide] | 1030
11 | CC(C)c1nn(CC(=O)NC2CCCN(C(C)(C)C)C2)c(=O)c2cc3ccsc3n12 (centres unmarked) [Example 37, N-(1-(tert-butyl)piperidin-3-yl)-2-(8-isopropyl-5-oxothieno[3′,2′:4,5]pyrrolo[1,2-d][1,2,4]triazin-6(5H)-yl)acetamide formate] | 45

Now from value to molecule:

Row | IC50 [nM] | Compound
12 | 157 | CC(C)c1nn(CC(=O)N[C@@H]2CCCN(CC#N)C2)c(=O)c2cc3ccsc3n12 [Example 75, N-[(3R)-1-(cyanomethyl)piperidin-3-yl]-2-(8-isopropyl-5-oxothieno[3′,2′:4,5]pyrrolo[1,2-d][1,2,4]triazin-6(5H)-yl)acetamide]
13 | 2070 | CC(C)c1nn(CC(=O)Nc2ccncn2)c(=O)c2cc3ccsc3n12 [Example 66, 2-(12-isopropyl-9-oxo-3-thia-1,10,11-triazatricyclo[6.4.0.02,6]dodeca-2(6),4,7,11-tetraen-10-yl)-N-pyrimidin-4-yl-acetamide]
14 | 446 | CC(C)c1nn(CC(=O)Nc2ccncc2)c(=O)c2cc3ccsc3n12 [Example 67, 2-(12-isopropyl-9-oxo-3-thia-1,10,11-triazatricyclo[6.4.0.02,6]dodeca-2(6),4,7,11-tetraen-10-yl)-N-(4-pyridyl)acetamide]
15 | > 10000 | CCCc1nn(CC(=O)N[C@@H]2CCCN(C3CC3)C2)c(=O)c2cc3ccsc3n12 [Example 72, N-[(3R)-1-cyclopropylpiperidin-3-yl]-2-(9-oxo-12-propyl-3-thia-1,10,11-triazatricyclo [6.4.0.02,6]dodeca-2(6),4,7,11-tetraen-10-yl)acetamide]
16 | 326 | CC(C)c1nn(CC(=O)N[C@@H]2CCCN(C[C@@H](C)O)C2)c(=O)c2cc3ccsc3n12 [Example 78, N-[(3R)-1-[(2R)-2-hydroxypropyl]piperidin-3-yl]-2-(8-isopropyl-5-oxothieno[3′,2′:4,5]pyrrolo [1,2-d][1,2,4]triazin-6(5H)-yl)acetamide]
17 | 322 | CCOC(=O)C(C)(C)N1CCCC(NC(=O)Cn2nc(C(C)C)n3c(cc4ccsc43)c2=O)C1 (centres unmarked) [Example 80, ethyl 2-methyl-2-[3-[[2-(8-isopropyl-5-oxothieno[3′,2′:4,5]pyrrolo[1,2-d][1,2,4]triazin-6(5H)-yl)acetyl]amino]piperidin-1-yl]propanoate]
18 | 1660 | CC(C)c1nn(CC(=O)NC2CN(C3CC3)CC(F)(F)C2)c(=O)c2cc3ccsc3n12 (centres unmarked) [Example 63, N-(1-cyclopropyl-5,5-difluoropiperidin-3-yl)-2-(8-isopropyl-5-oxothieno[3′,2′:4,5]pyrrolo [1,2-d][1,2,4]triazin-6(5H)-yl)acetamide 2,2,2-trifluoroacetate]
19 | > 10000 | CC(C)c1nn(CC(=O)NC2CCN(C3CC3)C2)c(=O)c2cc3ccsc3n12 (centres unmarked) [Example 86, N-(1-cyclopropylpyrrolidin-3-yl)-2-(12-isopropyl-9-oxo-3-thia-1,10,11-triazatricyclo [6.4.0.02,6]dodeca-2(6),4,7,11-tetraen-10-yl)acetamide]
20 | > 10000 | CCc1nn(CC(=O)N[C@@H]2CCCN(C)C2)c(=O)c2cc3ccsc3n12 [Example 73, 2-(12-ethyl-9-oxo-3-thia-1,10,11-triazatricyclo[6.4.0.02,6]dodeca-2(6),4,7,11-tetraen-10-yl)-N-[(3R)-1-methyl-3-piperidyl]acetamide]
21 | > 10000 | CC(C)c1nn(CC(=O)NC2CCN(C(C)(C)C)C2)c(=O)c2cc3ccsc3n12 (racemic) [Example 87, 2-(12-isopropyl-9-oxo-3-thia-1,10,11-triazatricyclo[6.4.0.02,6]dodeca-2(6),4,7,11-tetraen-10-yl)-N-[rac-(3R)-1-tert-butylpyrrolidin-3-yl]acetamide]
22 | 1880 | CC(C)c1nn(CC(=O)NC2CC3(C2)CN(C)C3)c(=O)c2cc3ccsc3n12 [Example 83, N-(2-methyl-2-azaspiro[3.3]heptan-6-yl)-2-(8-isopropyl-5-oxothieno[3′,2′:4,5]pyrrolo[1,2-d][1,2,4]triazin-6(5H)-yl)acetamide]
23 | 4500 | CC(C)c1nn(CC(=O)NC2C[C@@H]3C[C@H]2N(C)C3)c(=O)c2cc3ccsc3n12 (stereo in doubt) [Example 82, N-[(1R,4R)-2-methyl-2-azabicyclo[2.2.1]heptan-6-yl]-2-(8-isopropyl-5-oxothieno [3′,2′:4,5]pyrrolo[1,2-d][1,2,4]triazin-6(5H)-yl)acetamide]
24 | 850 | CC(C)c1nn(CC(=O)N[C@@H]2CCCCN(C)C2)c(=O)c2cc3ccsc3n12 [Example 62, 2-(12-isopropyl-9-oxo-3-thia-1,10,11-triazatricyclo[6.4.0.02,6]dodeca-2(6),4,7,11-tetraen-10-yl)-N-[(3R)-1-methylazepan-3-yl]acetamide]
25 | 978 | CC(C)c1nn(CC(=O)N[C@@H]2CCN(C)C2)c(=O)c2cc3ccsc3n12 [Example 76, N-[(3R)-1-methylpyrrolidin-3-yl]-2-(8-isopropyl-5-oxothieno[3′,2′:4,5]pyrrolo[1,2-d][1,2,4]triazin-6(5H)-yl)acetamide]
26 | 3430 | CCc1nn(CC(=O)N[C@@H]2CCCN(C[C@H](C)O)C2)c(=O)c2cc3ccsc3n12 [Example 69, 2-(12-ethyl-9-oxo-3-thia-1,10,11-triazatricyclo[6.4.0.02,6]dodeca-2(6),4,7,11-tetraen-10-yl)-N-[(3R)-1-[(2S)-2-hydroxypropyl]-3-piperidyl]acetamide]
27 | 344 | CC(=O)NCC12CC(NC(=O)Cn3nc(C(C)C)n4c(cc5ccsc54)c3=O)(C1)C2 [Example 74, N-[3-(acetamidomethyl)bicyclo[1.1.1]pentan-1-yl]-2-(8-isopropyl-5-oxothieno[3′,2′:4,5]pyrrolo[1,2-d][1,2,4]triazin-6(5H)-yl)acetamide]

Same assay, conditions: LPS-primed, read-out: IL1b IC50

Row | IC50 [nM] | Compound
28 | 278 | CC(O)c1nn(CC(=O)N[C@@H]2CCCN(C3CC3)C2)c(=O)c2cc3ccsc3n12 (single isomer, unassigned) [Example 44]
29 | > 10000 | CC(O)c1nn(CC(=O)N[C@@H]2CCCN(C3CC3)C2)c(=O)c2cc3ccsc3n12 (single isomer, unassigned) [Example 51]
